# Results as given in US11485740B2, “Inhibitors of TRPC6” (Boehringer Ingelheim International GmbH, priority 2018, dated 2022).
# Target: T1, human TRPC6 (Homo sapiens, UniProt Q9Y210)
# T1 construct: expressed in transfected cells
# T1 sequence (Q9Y210 1-931): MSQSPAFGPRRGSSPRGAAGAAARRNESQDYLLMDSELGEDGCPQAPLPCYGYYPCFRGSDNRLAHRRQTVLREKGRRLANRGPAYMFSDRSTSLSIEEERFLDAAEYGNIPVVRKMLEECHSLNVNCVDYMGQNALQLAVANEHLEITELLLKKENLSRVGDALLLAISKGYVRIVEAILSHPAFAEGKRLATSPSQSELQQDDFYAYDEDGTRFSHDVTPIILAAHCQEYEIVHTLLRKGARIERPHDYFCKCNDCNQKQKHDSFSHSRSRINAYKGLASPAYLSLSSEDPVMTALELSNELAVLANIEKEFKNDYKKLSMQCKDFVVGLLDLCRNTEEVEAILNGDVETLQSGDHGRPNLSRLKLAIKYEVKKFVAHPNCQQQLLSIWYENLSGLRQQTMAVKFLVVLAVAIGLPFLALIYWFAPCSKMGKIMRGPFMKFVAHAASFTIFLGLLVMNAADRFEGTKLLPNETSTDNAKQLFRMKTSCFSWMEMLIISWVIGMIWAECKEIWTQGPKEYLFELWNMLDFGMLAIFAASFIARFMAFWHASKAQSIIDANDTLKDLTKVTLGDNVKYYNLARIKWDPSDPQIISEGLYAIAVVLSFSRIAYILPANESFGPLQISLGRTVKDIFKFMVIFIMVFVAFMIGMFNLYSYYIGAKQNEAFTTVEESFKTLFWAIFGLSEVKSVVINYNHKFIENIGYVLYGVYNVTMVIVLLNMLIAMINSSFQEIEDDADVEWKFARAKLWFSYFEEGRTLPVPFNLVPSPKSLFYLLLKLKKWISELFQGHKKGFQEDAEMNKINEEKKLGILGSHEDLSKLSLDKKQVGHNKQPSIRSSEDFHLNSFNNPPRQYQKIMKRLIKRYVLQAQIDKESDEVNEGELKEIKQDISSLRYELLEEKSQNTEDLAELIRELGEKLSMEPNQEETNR
# Assay: High throughput screening assay: Fluo4/AM calcium fluorescence in HEK293/TREx cells expressing human TRPC6, agonist GSK1702934A (single concentration 10 μM and IC50 curves)
# Format: cell-based
# Details: antagonist effect against human TRPC6, 7 concentrations 20 μM to 0.027 μM, triplicate
# How it was run: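 HEK293/TREx cells stably carrying tetracycline-induced (1 μg/ml) human TRPC6, loaded with Fluo4/AM (0.5 μM, 60 min, RT), pretreated 2 min with compound (10 μM final in screen), then stimulated with GSK1702934A in high-Ca2+ Ringer's (20 mM Ca2+ final). Fluorescence ratio over ~3 min normalized to no-compound and control-blocker wells; IC50 from triplicate curves.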
row,IC50 [nM],SMILES
1,230,"COC[C@H]1CN(c2cnc(N)cc2OC)CCN1C(=O)c1cc(OC)c(-c2ccccc2)cn1 [Compound 100, [(R)-4-(6-Amino-4-methoxy-pyridin-3-yl)-2-methoxymethyl-piperazin-1-yl]-(4-methoxy-5-phenyl-pyridin-2-yl)-methanone]"
2,390,"COc1cc(C(=O)N2CCN(c3cnc(N)cc3OC)C[C@H]2CO)ncc1-c1ccc(C(F)(F)F)cc1 [Compound 101, [(S)-4-(6-Amino-4-methoxy-pyridin-3-yl)-2-hydroxymethyl-piperazin-1-yl]-[4-methoxy-5-(4-trifluoromethyl-phenyl)-pyridin-2-yl]-methanone]"
3,840,"COc1cc(C(=O)N2CCN(c3cnc(N)cc3OC)C[C@H]2CO)ncc1-c1ccc(F)cc1 [Compound 102, [(S)-4-(6-Amino-4-methoxy-pyridin-3-yl)-2-hydroxymethyl-piperazin-1-yl]-[5-(4-fluoro-phenyl)-4-methoxy-pyridin-2-yl]-methanone]"
4,27,"COc1cc(C(=O)N2CCN(c3cnc(N)cc3OC)CC2)ncc1-c1ccc(C(F)(F)F)cc1 [Compound 103, [4-(6-Amino-4-methoxy-pyridin-3-yl)-piperazin-1-yl]-[4-methoxy-5-(4-trifluoromethyl-phenyl)-pyridin-2-yl]-methanone]"
5,27,"COc1cc(C(=O)N2CCN(c3cnc(N)cc3OC)CC2)ncc1-c1ccc(F)cc1 [Compound 104, [4-(6-Amino-4-methoxy-pyridin-3-yl)-piperazin-1-yl]-[5-(4-fluoro-phenyl)-4-methoxy-pyridin-2-yl]-methanone]"
6,32,"COc1cc(C(=O)N2CCN(c3cnc(N)cc3OC)CC2)ncc1-c1ccccc1 [Compound 105, 4-Methoxy-5-[4-(4-methoxy-5-phenylpyridine-2-carbonyl)piperazin-1-yl]pyridin-2-amine]"
7,440,"COc1cc(C(=O)N2CCN(c3cnc(N)cc3OC)C[C@@H]2[C@@H](C)O)ncc1-c1ccc(C(F)(F)F)cc1 [Compound 106, [(R)-4-(6-Amino-4-methoxy-pyridin-3-yl)-2-((R)-1-hydroxy-ethyl)piperazin-1-yl]-[4-methoxy-5-(4-trifluoromethyl-phenyl)-pyridin-2-yl]-methanone]"
8,210,COc1cc(C(=O)N2CCN(c3cnc(N)cc3OC)C[C@@H]2[C@H](C)O)ncc1-c1ccc(C(F)(F)F)cc1 [Compound 107]
9,700,"COc1cc(C(=O)N2CCN(c3cnc(N)cc3OC)CC2CC(F)F)ncc1-c1ccc(C(F)(F)F)cc1 (stereo not drawn) [Compound 108, [4-(6-Amino-4-methoxy-pyridin-3-yl)-2-(2,2-difluoro-ethyl)-piperazin-1-yl]-[4-methoxy-5-(4-trifluoromethyl-phenyl)-pyridin-2-yl]-methanone]"
10,440,"COc1cc(C(=O)N2CCC(c3ccc(N)nn3)CC2)ncc1-c1ccc(OCC2CC2(F)F)nc1 (stereo not drawn) [Compound 111, [4-(6-Amino-pyridazin-3-yl)-piperidin-1-yl]-[6′-(2,2-difluoro-cyclopropylmethoxy)-4-methoxy-[3,3′]bipyridinyl-6-yl]-methanone]"
11,1400,"COc1cc(C(=O)N2CCC(c3ccc(N)nn3)CC2)ncc1-c1ccc(OC2CC2)nc1 [Compound 112, [4-(6-Amino-pyridazin-3-yl)-piperidin-1-yl]-(6′-cyclopropoxy-4-methoxy-[3,3′]bipyridinyl-6-yl)-methanone]"
12,2800,"C[C@@H]1CN(C(=O)c2ccc(-c3ccc(C(F)(F)F)cc3)cc2)CCN1c1ccc(N)nc1 [Compound 113, [(R)-4-(6-Amino-pyridin-3-yl)-3-methyl-piperazin-1-yl]-(4′-trifluoromethyl-biphenyl-4-yl)-methanone]"
13,67,"COc1cc(C(=O)N2CCN(c3ccc(N)nc3)[C@H](C)C2)ccc1-c1ccc(C(F)(F)F)cc1 [Compound 114, [(R)-4-(6-Amino-pyridin-3-yl)-3-methyl-piperazin-1-yl]-(2-methoxy-4′-trifluoromethyl-biphenyl-4-yl)-methanone]"
14,250,"COc1cc(C(=O)N2C[C@@H]3C[C@H]2CN3c2ccc(N)nn2)ccc1-c1ccc(C(F)(F)F)cc1 [Compound 115, [(1S,4S)-5-(6-Amino-pyridazin-3-yl)-2,5-diaza-bicyclo[2.2.1]hept-2-yl]-(2-methoxy-4′-trifluoromethyl-biphenyl-4-yl)-methanone]"
15,190,"COc1cc(C(=O)N2C[C@@H]3C[C@H]2CN3c2ccc(N)nn2)ncc1-c1ccc(C(F)(F)F)cc1 [Compound 116, [(1S,4S)-5-(6-Amino-pyridazin-3-yl)-2,5-diaza-bicyclo[2.2.1]hept-2-yl]-[4-methoxy-5-(4-trifluoromethyl-phenyl)-pyridin-2-yl]-methanone]"
